What was measured:
[1] = system: CD34-positive cells (stem cells); assay: Viability of the stem cells after photodynamic treatment; type: cell-based; settings: 25 μM sensitizer, illumination 1 hour, vs control (no illumination, no sensitizer) (FIG. 2)
Procedure: (§1) The following parameters were measured:
Viability of the stem cells.

[2] = system: stem cells from umbilical cord blood
Procedure: Stem cells were isolated from fresh umbilical cord blood using hydroxy ethylstarch (HES) sedimentation (Perutelli P. et al, Vox Sang. 76(4) pp 237-40 (1999); Adorno G. et al, Clin. Lab. Haematol. 20(6) pp 341-3 (1998)). The resulting solution contained 20*10^6 cells/ml, as determined using an automatic cell counter (Sysmex K1000, TOA Medical Electronics, Kobe, Japan).
Stock solutions of Pseudomonas aeruginosa were added to the stem cell solution such that the volume of the spike was <10% of the total volume of the solution, and the number of bacteria was about 10^5/ml. A sensitizer, monophenyl-tri(N-methyl-4-pyridyl)porphyrin chloride (TriP(4), Mid-Century, Posen, Ill. USA), was added to a final concentration of 25 μM. The suspension were thoroughly mixed and divided into 3-ml aliquots in polystyrene culture dishes with a diameter of 6 cm (Greiner, Alphen a/d Rijn, the Netherlands), and agitated at room temperature on a horizontal reciprocal shaker (60 cycles/min, GFL, Burgwedel, Germany) for 5 min. in the dark. […] The irradiance at the cell layer was 35 mW/cm^2, as measured with an IL1400A photometer equipped with a SEL033 detector (International Light, Newburyport, Mass. USA). The following parameters were measured:
Influence of the treatment on stem cell differentiation (as measured by cfu-e, bfu-e, cfu-m, cfu-gm, and cfu-gem). […]

Pseudomonas aeruginosa = assay: Photodynamic inactivation of Pseudomonas aeruginosa in stem cell-containing solution; type: cell-based; settings: 25 μM sensitizer, light >600 nm, 35 mW/cm^2, about 10^5 bacteria/ml in stem cell solution (FIG. 1)
Procedure: Photodynamic Treatment of Stem Cell-Containing Solution Contaminated with Pseudomonas
as §1
Inactivation of P. aeruginosa; and […]

SMILES: C[n+]1ccc(-c2c3nc(c(-c4cc[n+](C)cc4)c4ccc([nH]4)c(-c4cc[n+](C)cc4)c4nc(c(-c5ccccc5)c5ccc2[nH]5)C=C4)C=C3)cc1.[Cl-].[Cl-].[Cl-] [TriP(4), monophenyl-tri(N-methyl-4-pyridyl)porphyrin chloride]
- viability of CD34-positive cells (stem cells) [1]: remains within the error margin for the control experiment
- CFU-Mk, PDT (60′) [2]: 38
- Inactivation of P. aeruginosa (Pseudomonas aeruginosa): effectively killed
